In publication PMC6440464 (PeerJ, 2019):
Where two headings read alike, the source gives them in different places.

Experiment: Pharmacokinetics study after separate oral administration in rats (HPLC-MS of plasma)
Assay type: in vivo, Sprague-Dawley rats
Conditions: male, Sprague-Dawley, rat, plasma, 50 mg/kg; for Tmax / AUC(0-t) / CL/F / Cmax / MRT last / half-life: po, rat plasma; for Tmax: read-out: Tmax (converted); for CL/F: read-out: CLz/F; for Cmax: read-out: Cmax; for half-life: read-out: t1/2z
Experimental: A total of 15 SPF Sprague-Dawley rats (SD, male, 190–210 g) were provided by Sino-British Sippr/BK Lab Animal Company Ltd. (Shanghai, China). The rats were kept in standard conditions (22–26 °C; 40–60% relative humidity; 12 h light/dark cycle). Throughout the rearing period, the animals had access to food and water ad libitum. Animal experiments were conducted in accordance with the standard ethical guidelines of the Laboratory Animal Management Committee of Jiangsu Province (SYXK (SU) 2016-0011).
Following 1 week of adaptation, the rats were fasted for about 12 h before dosing, with free access to water. […] After administration of the first dose, blood samples were taken from the retro-orbital vein at 0, 5, 15, 30, 60, 90, 120, 180, 240, 360, 480, and 1,440 min and collected in heparinized tubes. The samples were centrifuged at 3,500 rpm for 10 min at 4 °C and the plasma was stored at −80 °C until analysis.
An Agilent 1,200 series HPLC system (Agilent Technologies, Waldbronn, Germany) equipped with a quaternary pump on-line degasser, auto-sampler and column oven, and an SL G1946D quadruple mass spectrometer (Agilent Technologies, Santa Clara, CA, USA) equipped with an electrospray ionization (ESI) source, were used for separation and detection. Data were acquired and analyzed using Agilent ChemStation Software Version A.01.00 (Agilent Technologies, Santa Clara, CA, USA).
The separation was carried out with an Amethyst C18-H column (150 × 4.6 mm, 5 μm, Sepax Technologies, Newark, DE, USA) with a guard column SB-C18 (10 × 4.6 mm, 5 μm, Phenomenex Technologies, Torrance, USA) at a constant temperature of 25 °C.
The mass spectra were acquired using ESI interfaced to a single quadrupole mass spectrometer. The ionization conditions were as follows: drying gas (N2) flow rate of 11 L/min, drying gas temperature of 350 °C, nebulizing gas (N2) pressure of 35 psi, capillary voltage of 3,500 V, quad temperature of 100 °C, and fragment voltage of 110 V. A series of m/z were monitored using a timed program according to the retention times and characteristic ions for the corresponding HPLC-MS peak obtained by scanning from m/z 100–1,000 in the standard sample.
Briefly, an aliquot of plasma sample (100 μL) was spiked with 5% formic acid (10 μL) in centrifuge tube. Subsequently, hydrochloric acid (2 mol/L, 10 μL) and IS solution (960.00 ng/mL, 20 μL) were added. Then ethyl acetate/n-butyl alcohol (1:1 v/v; 1,000 μL) was used to extract the components. The samples were then homogenized by vortex mixing and centrifuged for 10 min at 14,000 rpm. After centrifugation, 800 μL of supernatant was transferred to another centrifuge tube and the sample was evaporated to dryness. The residues were dissolved in 100 μL of methanol and centrifuged for 10 min at 12,000 rpm. 50 μL of the supernatant was transferred to the vial and an aliquot of 5 μL was injected into the HPLC-MS system for analysis.
DAS 2.0 (Chinese Pharmacological Association, Shanghai, China) was used to calculate the pharmacokinetic parameters using the non-compartment model, including the area under curve (AUC), mean residence time (MRT), half-life ( t1/2z), clearance rate (CL), maximum plasma concentration (Cmax), and time (Tmax). All results are expressed as mean ± standard deviation (SD). One way analysis of variance followed by […] was used for comparison of different groups using Graph pad prism 5 software. A p-value of <0.05 was considered statistically significant.

[1] = IQ group (oral IQ 50 mg/kg), labelled substance = analyte, mean of 5 rats
[2] = IQ group: oral IQ 50 mg/kg, mean ± SD, n = 5
[3] = QG group (oral QG 50 mg/kg), labelled substance = analyte, mean of 5 rats
[4] = QG group: oral QG 50 mg/kg, mean ± SD, n = 5
[5] = Qr group (oral Qr 50 mg/kg), labelled substance = analyte, mean of 5 rats
[6] = Qr group: oral Qr 50 mg/kg, mean ± SD, n = 5

O=c1c(O)c(-c2ccc(O)c(O)c2)oc2cc(O)cc(O)c12 [Qr, Quercetin]
concentration at 5 min (oral, QG group (oral QG 50 mg/kg), 5 min, individual rats NO. 1-5, read-out: Plasma concentrations): 0 ng/mL
concentration at 15 min (oral, QG group (oral QG 50 mg/kg), 15 min, individual rats NO. 1-5, read-out: Plasma concentrations): 0 ng/mL
concentration at 30 min (oral, QG group (oral QG 50 mg/kg), 30 min, individual rats NO. 1-5, read-out: Plasma concentrations): 0 ng/mL
concentration at 240 min (oral, Qr group (oral Qr 50 mg/kg), 240 min, individual rats NO. 1-5, read-out: Plasma concentrations): 2590 ng/mL
Tmax (IQ group (oral IQ 50 mg/kg), labelled substance = analyte, individual rats No1-No5): 0.5 h
AUC(0-t) (IQ group (oral IQ 50 mg/kg), labelled substance = analyte, mean of 5 rats, read-out: AUC(0-t) (converted)): 36900 ng·h/mL
CL/F [1]: 24 mL/min/kg
Cmax [1]: 6600 ng/mL
MRT last (IQ group (oral IQ 50 mg/kg), labelled substance = analyte, mean of 5 rats, read-out: MRT(0-t) (converted)): 7.04 h
Tmax [1]: 0.7 h
half-life [1]: 6.31 h
AUC(0-t) (IQ group: oral IQ 50 mg/kg, mean ± SD, n = 5, read-out: AUC0−t (converted)): 36900 ng·h/mL
Cmax [2]: 6600 ± 2670 ng/mL
MRT last (IQ group: oral IQ 50 mg/kg, mean ± SD, n = 5, read-out: MRT0−t (converted)): 7.04 h
Tmax [2]: 0.7 h
half-life [2]: 6.31 ± 5.65 h
Tmax (QG group (oral QG 50 mg/kg), labelled substance = analyte, individual rats No1-No5): 4 h
AUC(0-t) (QG group (oral QG 50 mg/kg), labelled substance = analyte, mean of 5 rats, read-out: AUC(0-t) (converted)): 58400 ng·h/mL
CL/F [3]: 14 mL/min/kg
Cmax [3]: 5170 ng/mL
Tmax [3]: 6 h
half-life [3]: 6.09 h
AUC(0-t) (QG group: oral QG 50 mg/kg, mean ± SD, n = 5, read-out: AUC0−t (converted)): 58400 ng·h/mL
Cmax [4]: 5170 ± 1850 ng/mL
Tmax [4]: 6 h
half-life [4]: 6.09 ± 2.53 h
MRT last (Qr group (oral Qr 50 mg/kg), labelled substance = analyte, individual rats No1-No5, read-out: MRT(0-t) (converted)): 6.33 h
half-life (Qr group (oral Qr 50 mg/kg), labelled substance = analyte, individual rats No1-No5): 7.67 h
AUC(0-t) (Qr group (oral Qr 50 mg/kg), labelled substance = analyte, mean of 5 rats, read-out: AUC(0-t) (converted)): 43200 ng·h/mL
CL/F [5]: 20 mL/min/kg
Cmax [5]: 7470 ng/mL
Tmax [5]: 0.9 h
half-life [5]: 7.29 h
AUC(0-t) (Qr group: oral Qr 50 mg/kg, mean ± SD, n = 5, read-out: AUC0−t (converted)): 43200 ng·h/mL
Cmax [6]: 7470 ± 2630 ng/mL
Tmax [6]: 0.9 h
half-life [6]: 7.29 ± 0.905 h
